Measurements reported in ChEMBL document CHEMBL3352031, “Discovery of diamine-linked 17-aroylamido-17-demethoxygeldanamycins as potent Hsp90 inhibitors” (Eur J Med Chem, 2014).
pIC50: −log10 of the molar value.

Test system: MDA-MB-231
Assay: cells
Conditions: Homo sapiens, MDA-MB-231, 72 h
Description: Cytotoxicity against human MDA-MB-231 cells after 72 hrs by MTT assay

Row | SMILES | pIC50
1 | CO[C@H]1/C=C\C=C(/C)C(=O)NC2=CC(=O)C(NCCCCCCNC(=O)c3cc(O)cc(O)c3)=C(C[C@@H](C)C[C@H](OC)[C@H](O)[C@@H](C)/C=C(\C)[C@@H]1OC(N)=O)C2=O | 5.36
2 | CO[C@H]1/C=C\C=C(/C)C(=O)NC2=CC(=O)C(NCC3CCN(C(=O)c4ccncc4)CC3)=C(C[C@@H](C)C[C@H](OC)[C@H](O)[C@@H](C)/C=C(\C)[C@@H]1OC(N)=O)C2=O | 5.55
3 | CO[C@H]1/C=C\C=C(/C)C(=O)NC2=CC(=O)C(NCCCCCCNC(=O)c3ccncn3)=C(C[C@@H](C)C[C@H](OC)[C@H](O)[C@@H](C)/C=C(\C)[C@@H]1OC(N)=O)C2=O | 6.04
4 | CO[C@H]1/C=C\C=C(/C)C(=O)NC2=CC(=O)C(NCCCCNC(=O)c3ccccc3O)=C(C[C@@H](C)C[C@H](OC)[C@H](O)[C@@H](C)/C=C(\C)[C@@H]1OC(N)=O)C2=O | 5.31
5 | COc1cc(/C=C/C(=O)NCCCCCCNC2=C3C[C@@H](C)C[C@H](OC)[C@H](O)[C@@H](C)/C=C(\C)[C@H](OC(N)=O)[C@@H](OC)/C=C\C=C(/C)C(=O)NC(=CC2=O)C3=O)cc(OC)c1 | 5.77
6 | COc1ccc(/C=C/C(=O)NCCCCCCNC2=C3C[C@@H](C)C[C@H](OC)[C@H](O)[C@@H](C)/C=C(\C)[C@H](OC(N)=O)[C@@H](OC)/C=C\C=C(/C)C(=O)NC(=CC2=O)C3=O)cc1 | 5.34
7 | CO[C@H]1/C=C\C=C(/C)C(=O)NC2=CC(=O)C(NCCCCNC(=O)c3cccnc3)=C(C[C@@H](C)C[C@H](OC)[C@H](O)[C@@H](C)/C=C(\C)[C@@H]1OC(N)=O)C2=O | 5.39
8 | CO[C@H]1/C=C\C=C(/C)C(=O)NC2=CC(=O)C(NCCCCCCNC(=O)c3ccccn3)=C(C[C@@H](C)C[C@H](OC)[C@H](O)[C@@H](C)/C=C(\C)[C@@H]1OC(N)=O)C2=O | 5.76
9 | CO[C@H]1/C=C\C=C(/C)C(=O)NC2=CC(=O)C(NCCCCNC(=O)c3nc(C)c(C)nc3C)=C(C[C@@H](C)C[C@H](OC)[C@H](O)[C@@H](C)/C=C(\C)[C@@H]1OC(N)=O)C2=O | 5.07
10 | CO[C@H]1/C=C\C=C(/C)C(=O)NC2=CC(=O)C(NCC3CCN(C(=O)c4ccccn4)CC3)=C(C[C@@H](C)C[C@H](OC)[C@H](O)[C@@H](C)/C=C(\C)[C@@H]1OC(N)=O)C2=O | 5.95
11 | CO[C@H]1/C=C\C=C(/C)C(=O)NC2=CC(=O)C(NCCCCCCNC(=O)c3ccc(I)cc3)=C(C[C@@H](C)C[C@H](OC)[C@H](O)[C@@H](C)/C=C(\C)[C@@H]1OC(N)=O)C2=O | 5.40
12 | COc1ccccc1/C=C/C(=O)NCCCCCCNC1=C2C[C@@H](C)C[C@H](OC)[C@H](O)[C@@H](C)/C=C(\C)[C@H](OC(N)=O)[C@@H](OC)/C=C\C=C(/C)C(=O)NC(=CC1=O)C2=O | 5.48
13 | CO[C@H]1/C=C\C=C(/C)C(=O)NC2=CC(=O)C(NCCCCCCNC(=O)/C=C/c3ccccc3C)=C(C[C@@H](C)C[C@H](OC)[C@H](O)[C@@H](C)/C=C(\C)[C@@H]1OC(N)=O)C2=O | 5.16
14 | CO[C@H]1/C=C\C=C(/C)C(=O)NC2=CC(=O)C(NCCCCCCNC(=O)/C=C/c3ccccc3[N+](=O)[O-])=C(C[C@@H](C)C[C@H](OC)[C@H](O)[C@@H](C)/C=C(\C)[C@@H]1OC(N)=O)C2=O | 5.79
15 | CO[C@H]1/C=C\C=C(/C)C(=O)NC2=CC(=O)C(NCCCCCCNC(=O)c3ccc(F)cc3)=C(C[C@@H](C)C[C@H](OC)[C@H](O)[C@@H](C)/C=C(\C)[C@@H]1OC(N)=O)C2=O | 5.38
16 | CO[C@H]1/C=C\C=C(/C)C(=O)NC2=CC(=O)C(NCCCCCCNC(=O)c3ccccc3O)=C(C[C@@H](C)C[C@H](OC)[C@H](O)[C@@H](C)/C=C(\C)[C@@H]1OC(N)=O)C2=O | 5.22
17 | CO[C@H]1/C=C\C=C(/C)C(=O)NC2=CC(=O)C(NCCCCCCNC(=O)c3nc(C)c(C)nc3C)=C(C[C@@H](C)C[C@H](OC)[C@H](O)[C@@H](C)/C=C(\C)[C@@H]1OC(N)=O)C2=O | 5.51
18 | CO[C@H]1/C=C\C=C(/C)C(=O)NC2=CC(=O)C(NCC3CCN(C(=O)c4cnc(C)c(C)n4)CC3)=C(C[C@@H](C)C[C@H](OC)[C@H](O)[C@@H](C)/C=C(\C)[C@@H]1OC(N)=O)C2=O | 5.63
19 | CO[C@H]1/C=C\C=C(/C)C(=O)NC2=CC(=O)C(NCC3CCN(C(=O)c4cccnc4)CC3)=C(C[C@@H](C)C[C@H](OC)[C@H](O)[C@@H](C)/C=C(\C)[C@@H]1OC(N)=O)C2=O | 5.69
20 | CO[C@H]1/C=C\C=C(/C)C(=O)NC2=CC(=O)C(NCCCCCCNC(=O)/C=C/c3ccc(OC(F)(F)F)cc3)=C(C[C@@H](C)C[C@H](OC)[C@H](O)[C@@H](C)/C=C(\C)[C@@H]1OC(N)=O)C2=O | < 5.00
21 | CO[C@H]1/C=C\C=C(/C)C(=O)NC2=CC(=O)C(NCCCCCCNC(=O)/C=C/c3ccc(N(C)C)cc3)=C(C[C@@H](C)C[C@H](OC)[C@H](O)[C@@H](C)/C=C(\C)[C@@H]1OC(N)=O)C2=O | 5.68
22 | CO[C@H]1/C=C\C=C(/C)C(=O)NC2=CC(=O)C(NCCCCCCNC(=O)c3ccncc3)=C(C[C@@H](C)C[C@H](OC)[C@H](O)[C@@H](C)/C=C(\C)[C@@H]1OC(N)=O)C2=O | 6.05
23 | CO[C@H]1/C=C\C=C(/C)C(=O)NC2=CC(=O)C(NCCCCCCNC(=O)/C=C/c3ccc(C(F)(F)F)cc3)=C(C[C@@H](C)C[C@H](OC)[C@H](O)[C@@H](C)/C=C(\C)[C@@H]1OC(N)=O)C2=O | < 5.00

Row | SMILES | pIC50
24 | CO[C@H]1/C=C\C=C(/C)C(=O)NC2=CC(=O)C(NCCCCCCNC(=O)c3cncnc3)=C(C[C@@H](C)C[C@H](OC)[C@H](O)[C@@H](C)/C=C(\C)[C@@H]1OC(N)=O)C2=O | 5.91
25 | CO[C@H]1/C=C\C=C(/C)C(=O)NC2=CC(=O)C(NCC3CCN(C(=O)/C=C/c4ccc(O)cc4)CC3)=C(C[C@@H](C)C[C@H](OC)[C@H](O)[C@@H](C)/C=C(\C)[C@@H]1OC(N)=O)C2=O | 5.77
26 | CO[C@H]1/C=C\C=C(/C)C(=O)NC2=CC(=O)C(NCCCCCCNC(=O)c3ccc([N+](=O)[O-])cc3)=C(C[C@@H](C)C[C@H](OC)[C@H](O)[C@@H](C)/C=C(\C)[C@@H]1OC(N)=O)C2=O | 5.53
27 | CO[C@H]1/C=C\C=C(/C)C(=O)NC2=CC(=O)C(NCCCCCCNC(=O)c3cccnc3)=C(C[C@@H](C)C[C@H](OC)[C@H](O)[C@@H](C)/C=C(\C)[C@@H]1OC(N)=O)C2=O | 6.30
28 | CO[C@H]1/C=C\C=C(/C)C(=O)NC2=CC(=O)C(NCCCCCCNC(=O)/C=C/c3cccc(Cl)c3)=C(C[C@@H](C)C[C@H](OC)[C@H](O)[C@@H](C)/C=C(\C)[C@@H]1OC(N)=O)C2=O | 5.28
29 | COc1cccc(/C=C/C(=O)NCCCCCCNC2=C3C[C@@H](C)C[C@H](OC)[C@H](O)[C@@H](C)/C=C(\C)[C@H](OC(N)=O)[C@@H](OC)/C=C\C=C(/C)C(=O)NC(=CC2=O)C3=O)c1OC | 5.22
30 | CO[C@H]1/C=C\C=C(/C)C(=O)NC2=CC(=O)C(NCCCCCCNC(=O)c3ccc(Br)cc3)=C(C[C@@H](C)C[C@H](OC)[C@H](O)[C@@H](C)/C=C(\C)[C@@H]1OC(N)=O)C2=O | 5.33
31 | CO[C@H]1/C=C\C=C(/C)C(=O)NC2=CC(=O)C(NCCCCCCNC(=O)/C=C/c3ccc(O)c(O)c3)=C(C[C@@H](C)C[C@H](OC)[C@H](O)[C@@H](C)/C=C(\C)[C@@H]1OC(N)=O)C2=O | 5.41
32 | CO[C@H]1/C=C\C=C(/C)C(=O)NC2=CC(=O)C(NCCCCCCNC(=O)/C=C/c3cccc(O)c3)=C(C[C@@H](C)C[C@H](OC)[C@H](O)[C@@H](C)/C=C(\C)[C@@H]1OC(N)=O)C2=O | 5.91
33 | CO[C@H]1/C=C\C=C(/C)C(=O)NC2=CC(=O)C(NCCCCCCNC(=O)/C=C/c3ccc(C)cc3)=C(C[C@@H](C)C[C@H](OC)[C@H](O)[C@@H](C)/C=C(\C)[C@@H]1OC(N)=O)C2=O | 5.40
34 | CO[C@H]1/C=C\C=C(/C)C(=O)NC2=CC(=O)C(NCCCCCCNC(=O)c3ccc(Cl)cc3)=C(C[C@@H](C)C[C@H](OC)[C@H](O)[C@@H](C)/C=C(\C)[C@@H]1OC(N)=O)C2=O | 5.39
35 | COc1ccc(/C=C/C(=O)NCCCCCCNC2=C3C[C@@H](C)C[C@H](OC)[C@H](O)[C@@H](C)/C=C(\C)[C@H](OC(N)=O)[C@@H](OC)/C=C\C=C(/C)C(=O)NC(=CC2=O)C3=O)cc1O | 5.83
36 | COc1ccc(/C=C/C(=O)NCCCCCCNC2=C3C[C@@H](C)C[C@H](OC)[C@H](O)[C@@H](C)/C=C(\C)[C@H](OC(N)=O)[C@@H](OC)/C=C\C=C(/C)C(=O)NC(=CC2=O)C3=O)c(OC)c1OC | 5.73
37 | CO[C@H]1/C=C\C=C(/C)C(=O)NC2=CC(=O)C(NCCCCCCNC(=O)/C=C/c3ccccc3)=C(C[C@@H](C)C[C@H](OC)[C@H](O)[C@@H](C)/C=C(\C)[C@@H]1OC(N)=O)C2=O | 5.29
38 | CO[C@H]1/C=C\C=C(/C)C(=O)NC2=CC(=O)C(NCCCCCCNC(=O)c3cccs3)=C(C[C@@H](C)C[C@H](OC)[C@H](O)[C@@H](C)/C=C(\C)[C@@H]1OC(N)=O)C2=O | 5.52
39 | CO[C@H]1/C=C\C=C(/C)C(=O)NC2=CC(=O)C(NCCCCNC(=O)c3ccccn3)=C(C[C@@H](C)C[C@H](OC)[C@H](O)[C@@H](C)/C=C(\C)[C@@H]1OC(N)=O)C2=O | 5.50
40 | CO[C@H]1/C=C\C=C(/C)C(=O)NC2=CC(=O)C(NCCCCCCNC(=O)c3cncc(Br)c3)=C(C[C@@H](C)C[C@H](OC)[C@H](O)[C@@H](C)/C=C(\C)[C@@H]1OC(N)=O)C2=O | 5.63
41 | CO[C@H]1/C=C\C=C(/C)C(=O)NC2=CC(=O)C(NCCCCNC(=O)c3ccncc3)=C(C[C@@H](C)C[C@H](OC)[C@H](O)[C@@H](C)/C=C(\C)[C@@H]1OC(N)=O)C2=O | 5.46
42 | CO[C@H]1/C=C\C=C(/C)C(=O)NC2=CC(=O)C(NCCCCCCNC(=O)/C=C/c3cccc([N+](=O)[O-])c3)=C(C[C@@H](C)C[C@H](OC)[C@H](O)[C@@H](C)/C=C(\C)[C@@H]1OC(N)=O)C2=O | 5.99
43 | CO[C@H]1/C=C\C=C(/C)C(=O)NC2=CC(=O)C(NCCCCCCNC(=O)/C=C/c3ccc(O)cc3)=C(C[C@@H](C)C[C@H](OC)[C@H](O)[C@@H](C)/C=C(\C)[C@@H]1OC(N)=O)C2=O | 6.01
44 | CO[C@H]1/C=C\C=C(/C)C(=O)NC2=CC(=O)C(NCCCCCCNC(=O)c3ccccc3Cl)=C(C[C@@H](C)C[C@H](OC)[C@H](O)[C@@H](C)/C=C(\C)[C@@H]1OC(N)=O)C2=O | 5.47
45 | CO[C@H]1/C=C\C=C(/C)C(=O)NC2=CC(=O)C(NCCCCNC(=O)/C=C/c3ccc(O)cc3)=C(C[C@@H](C)C[C@H](OC)[C@H](O)[C@@H](C)/C=C(\C)[C@@H]1OC(N)=O)C2=O | 5.78
46 | CO[C@H]1/C=C\C=C(/C)C(=O)NC2=CC(=O)C(NCCCCCCNC(=O)/C=C/c3cccc(C)c3)=C(C[C@@H](C)C[C@H](OC)[C@H](O)[C@@H](C)/C=C(\C)[C@@H]1OC(N)=O)C2=O | 5.59
